This is an account of results in paper PMC5676521 (Chemical Science, 2017).

The target in this assay is PRMT7 (TbPRMT7) (Trypanosoma brucei, UniProt Q582G4).
PRMT7 (TbPRMT7), sequence (Q582G4 whole entry): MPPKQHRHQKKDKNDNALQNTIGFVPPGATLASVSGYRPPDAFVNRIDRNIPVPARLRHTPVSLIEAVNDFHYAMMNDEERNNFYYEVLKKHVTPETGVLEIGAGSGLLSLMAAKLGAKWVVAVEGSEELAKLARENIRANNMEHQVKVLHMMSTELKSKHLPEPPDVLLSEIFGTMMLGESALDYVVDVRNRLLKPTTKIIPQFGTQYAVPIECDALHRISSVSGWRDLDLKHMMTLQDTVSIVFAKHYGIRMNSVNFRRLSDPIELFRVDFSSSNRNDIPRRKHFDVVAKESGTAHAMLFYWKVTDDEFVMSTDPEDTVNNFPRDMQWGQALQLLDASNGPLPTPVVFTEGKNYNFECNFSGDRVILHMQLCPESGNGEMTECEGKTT

Broadly, the Km is the substrate concentration at which the rate is half of its maximum. As to `C[S+](CC[C@H](N)C(=O)O)C[C@H]1O[C@@H](n2nnc3c(N)ncnc32)[C@H](O)[C@@H]1O` (stereo partly shown) [8-aza-SAM], the Km was determined as 15.3 ± 0.7 µM.
